Measurements from ChEMBL document CHEMBL5055630, “Design, synthesis and biological evaluation of indole-based [1,2,4]triazolo[4,3-a] pyridine derivatives as novel microtubule polymerization inhibitors” (Eur J Med Chem, 2021).
Calls of active or inactive are those of the source. The rule behind the calls is not given here.

Key:
HeLa [1] = experiment: Induction of apoptosis in human HeLa cells assessed as late apoptotic cells at 25 nM incubated for 48 hrs by Annexin V and propidium iodide Staining based assay (reference value: 1 %); assay type: functional
Tubulin (Homo sapiens) = Tubulin (Homo sapiens) (UniProt P68371+Q9H4B7+P0DPH7+P68366+Q13509+Q71U36+P04350+Q3ZCM7+P07437+P68363+Q9BQE3+Q6PEY2+Q13885+Q9BVA1+Q9BUF5); experiment: Induction of microtubule disruption in human Hela cells assessed as fragmented and disassembled microtubule network in cytosol at 10 to 50 nM incubated for 24 hrs by AlexaFluor 488 dye/DAPI staining based immunofluorescence assay; assay type: cell-based; details: dose 10-50 nM
HeLa [2] = experiment: Induction of apoptosis in human HeLa cells assessed as increase in cleaved-PARP 1 protein expression after 24 hrs by Western blot analysis; assay type: functional, cell-based; details: dose 10-1000 nM
HeLa [3] = experiment: Inhibition of cell migration in human HeLa cells at 10 nM incubated for 24 hrs by microscopy method relative to control; assay type: functional
HeLa [4] = experiment: Induction of cell cycle arrest in human HeLa cells assessed as accumulation of cells at G2/M phase at 5 nM incubated for 24 hrs by propidium iodide staining based flow cytometry analysis; assay type: functional
Tubulin beta = experiment: Inhibition of beta-tubulin polymerization in human HeLa cells assessed as inhibition of EBI-beta-tubulin adduct formation measured by Western blot-based EBI competition assay; assay type: cell-based
HeLa [5] = experiment: Induction of apoptosis in human HeLa cells assessed as early apoptotic cells at 25 nM incubated for 48 hrs by Annexin V and propidium iodide Staining based assay (reference value: 0.2%); assay type: functional
[6] = Metabolic stability in human liver microsomes assessed as half life; assay type: ADME, Microsome
HeLa [7] = experiment: Induction of apoptosis in human HeLa cells assessed as early apoptotic cells at 10 nM incubated for 48 hrs by Annexin V and propidium iodide Staining based assay (reference value: 0.2%); assay type: functional
HeLa [8] = experiment: Induction of apoptosis in human HeLa cells assessed as viable cells at 10 nM incubated for 48 hrs by Annexin V and propidium iodide Staining based assay (reference value: 98.5 %); assay type: functional; details: read-out: Activity
HeLa [9] = experiment: Induction of apoptosis in human HeLa cells assessed as reduction in Bcl-xl protein expression after 24 hrs by Western blot analysis; assay type: functional, cell-based; details: dose 10-1000 nM
HeLa [10] = experiment: Induction of cell cycle arrest in human HeLa cells assessed as accumulation of cells at G2/M phase at 50 nM incubated for 24 hrs by propidium iodide staining based flow cytometry analysis; assay type: functional
HeLa [11] = experiment: Induction of apoptosis in human HeLa cells assessed as increase in bad protein expression after 24 hrs by Western blot analysis; assay type: functional, cell-based; details: dose 10-1000 nM
HeLa [12] = experiment: Induction of apoptosis in human HeLa cells assessed as increase in cleaved caspase 3 protein expression after 24 hrs by Western blot analysis; assay type: functional, cell-based; details: dose 10-1000 nM
HeLa [13] = experiment: Induction of apoptosis in human HeLa cells assessed as necrotic cells at 10 nM incubated for 48 hrs by Annexin V and propidium iodide Staining based assay (reference value: 0.4%); assay type: functional
HeLa [14] = experiment: Induction of apoptosis in human HeLa cells assessed as increase in bax protein expression after 24 hrs by Western blot analysis; assay type: functional, cell-based; details: dose 10-1000 nM
HeLa [15] = experiment: Induction of cell cycle arrest in human HeLa cells assessed as accumulation of cells at G2/M phase at 10 nM incubated for 24 hrs by propidium iodide staining based flow cytometry analysis; assay type: functional
[16] = Metabolic stability in human liver microsomes assessed as parent compound remaining after 15 mins; assay type: ADME, Microsome; details: read-out: Stability
HeLa [17] = experiment: Induction of apoptosis in human HeLa cells assessed as viable cells at 25 nM incubated for 48 hrs by Annexin V and propidium iodide Staining based assay (reference value: 98.5 %); assay type: functional; details: read-out: Activity
HeLa [18] = experiment: Induction of apoptosis in human HeLa cells assessed as late apoptotic cells at 50 nM incubated for 48 hrs by Annexin V and propidium iodide Staining based assay (reference value: 1 %); assay type: functional
HeLa [19] = experiment: Induction of apoptosis in human HeLa cells assessed as reduction in Bcl-2 protein expression after 24 hrs by Western blot analysis; assay type: functional, cell-based; details: dose 10-1000 nM
HeLa [20] = experiment: Inhibition of cell migration in human HeLa cells at 5 nM incubated for 24 hrs by microscopy method relative to control; assay type: functional
[21] = Metabolic stability in human liver microsomes assessed as parent compound remaining after 90 mins; assay type: ADME, Microsome; details: read-out: Stability
HeLa [22] = experiment: Induction of apoptosis in human HeLa cells assessed as viable cells at 50 nM incubated for 48 hrs by Annexin V and propidium iodide Staining based assay (reference value: 98.5 %); assay type: functional; details: read-out: Activity
HeLa [23] = experiment: Antiproliferative activity against human HeLa assessed as reduction in cell viability measured after 48 hrs by MTT assay; assay type: functional, cell-based
[24] = Metabolic stability in human liver microsomes assessed as parent compound remaining after 30 mins; assay type: ADME, Microsome; details: read-out: Stability
HeLa [25] = experiment: Induction of cell cycle arrest in human HeLa cells assessed as reduction in Cdc2 expression at 10 to 1000 nM measured after 24 hrs by immunoblotting assay; assay type: functional, cell-based; details: dose 10-1000 nM
A549 = experiment: Antiproliferative activity against human A549 assessed as reduction in cell viability measured after 48 hrs by MTT assay; assay type: functional, cell-based; details: A549, 48 h
HeLa [26] = experiment: Inhibition of cell migration in human HeLa cells at 25 nM incubated for 24 hrs by microscopy method relative to control; assay type: functional
HCT-116 = experiment: Antiproliferative activity against human HCT-116 assessed as reduction in cell viability measured after 48 hrs by MTT assay; assay type: functional, cell-based; details: HCT-116, 48 h
HeLa [27] = experiment: Induction of apoptosis in human HeLa cells assessed as necrotic cells at 50 nM incubated for 48 hrs by Annexin V and propidium iodide Staining based assay (reference value: 0.4%); assay type: functional
HeLa [28] = experiment: Induction of cell cycle arrest in human HeLa cells assessed as reduction in Cdc25c expression at 10 to 1000 nM measured after 24 hrs by immunoblotting assay; assay type: functional, cell-based; details: dose 10-1000 nM
[29] = Metabolic stability in human liver microsomes assessed as parent compound remaining after 60 mins; assay type: ADME, Microsome; details: read-out: Stability
Tubulin = experiment: Inhibition of tubulin polymerization (unknown origin) assessed as fluorescence intensity measured for 90 mins by DAPI based microplate reader; assay type: functional, Homo sapiens
HeLa [30] = experiment: Induction of apoptosis in human HeLa cells assessed as necrotic cells at 25 nM incubated for 48 hrs by Annexin V and propidium iodide Staining based assay (reference value: 0.4%); assay type: functional
HeLa [31] = experiment: Induction of apoptosis in human HeLa cells assessed as late apoptotic cells at 10 nM incubated for 48 hrs by Annexin V and propidium iodide Staining based assay (reference value: 1 %); assay type: functional
MCF7 = experiment: Antiproliferative activity against human MCF7 assessed as reduction in cell viability measured after 48 hrs by MTT assay; assay type: functional, cell-based; details: MCF7, 48 h
HeLa [32] = experiment: Induction of cell cycle arrest in human HeLa cells assessed as increase in cyclin B1 level at 10 to 1000 nM measured after 24 hrs by immunoblotting assay; assay type: functional, cell-based; details: dose 10-1000 nM
HeLa [33] = experiment: Induction of apoptosis in human HeLa cells assessed as early apoptotic cells at 50 nM incubated for 48 hrs by Annexin V and propidium iodide Staining based assay (reference value: 0.2%); assay type: functional
[34] = Metabolic stability in human liver microsomes assessed as parent compound remaining measured immediately after compound addition; assay type: ADME, Microsome; details: read-out: Stability

Activity (Tubulin (Homo sapiens)): Active
IC50 (Tubulin beta): Dose-dependent effect
half-life [6]: 51.7 min
remaining at 0.25 h [16]: 75.9%
remaining at 1.5 h [21]: 30.1%
IC50 (HeLa [23]): 15 nM
remaining at 0.5 h [24]: 55.5%
IC50 (A549): 69 nM
IC50 (HCT-116): 33 nM
remaining at 1 h [29]: 37.5%
IC50 (Tubulin): 1640 nM
IC50 (MCF7): 49 nM
remaining at 0 min [34]: 100%
SMILES: COc1cc(-c2nnc3c(OC)cc(-c4ccc5c(ccn5C)c4)cn23)cc(OC)c1OC
Activity (HeLa [1]): 54%
Activity (HeLa [2]): Dose-dependent effect
inhibition at 0.01 µM (HeLa [3]): 32.2%
Activity (HeLa [4]): 17.4%
Activity (HeLa [5]): 11.1%
Activity (HeLa [7]): 7.1%
viability at 0.01 µM (HeLa [8]): 41.8%
Activity (HeLa [9]): Dose-dependent effect
Activity (HeLa [10]): 77%
Activity (HeLa [11]): Dose-dependent effect
Activity (HeLa [12]): Dose-dependent effect
Activity (HeLa [13]): 2.4%
Activity (HeLa [14]): Dose-dependent effect
Activity (HeLa [15]): 37.7%
viability at 0.025 µM (HeLa [17]): 31.2%
Activity (HeLa [18]): 65.7%
Activity (HeLa [19]): Dose-dependent effect
inhibition at 0.005 µM (HeLa [20]): 22.1%
viability at 0.05 µM (HeLa [22]): 4.2%
Activity (HeLa [25]): Active
inhibition at 0.025 µM (HeLa [26]): 44.3%
Activity (HeLa [27]): 2.6%
Activity (HeLa [28]): Active
Activity (HeLa [30]): 3.6%
Activity (HeLa [31]): 48.8%
Activity (HeLa [32]): Active
Activity (HeLa [33]): 27.6%
